# Experimental data taken from patent US9951028B2, “Agricultural chemicals” (REDAG CROP PROTECTION LTD, priority 2013, dated 2018).
# How the values were obtained:
# [1] = test system: garden cress, Lepidium sativum; experiment: Herbicidal efficacy screen, potter tower spray, necrosis assessed; assay type: in vivo
# Description: (§1) Compounds 22, 23 and 24 were screened for herbicidal efficacy against target plants: garden cress, Lepidium sativum, common chickweed, Stellaria media, and white mustard […] alba Plants were obtained as seeds and were grown to the 2-4 true leaf stage. Plants were grown under laboratory conditions, individually in seed trays. Each plant (in an approximately 3 cm diameter plug) was then detached from the tray for spraying. The compounds were screened at a range of five concentrations, diluted in acetone and TweenTM. A carrier only control was also conducted. Treatments were applied directly onto the plants, using a potter tower, at a specified application rate. One plant of each species was sprayed using a potter tower. The 3 different types of plants were placed on a 10 cm diameter platform directly beneath the potter sprayer and sprayed simultaneously. The growth of the plants and any Phytotoxicity effects were then assessed at intervals over 21 days, according to EPPO guideline PP1/135. Five replicas were performed for each treatment, for each species. In the tables below C represents a percentage increase in necrosis relative to the control of 0.1-50; B represents a percentage inhibition of 50-80; and A represents a percentage inhibition of 80-100.
# [2] = test system: white mustard Sinapsis alba; experiment: as above; assay type: in vivo
# Description: as §1
# [3] = 12.5 g/ha, day 3 post application
# [4] = 12.5 g/ha, day 4 post application
# [5] = 12.5 g/ha, day 5 post application
# [6] = 12.5 g/ha, day 7 post application
# [7] = 12.5 g/ha, day 10 post application
# [8] = 25 g/ha, day 1 post application
# [9] = 25 g/ha, day 2 post application
# [10] = 25 g/ha, day 3 post application
# [11] = 25 g/ha, day 4 post application
# [12] = 25 g/ha, day 5 post application
# [13] = 25 g/ha, day 7 post application
# [14] = 25 g/ha, day 10 post application
# [15] = 50 g/ha, day 1 post application
# [16] = 50 g/ha, day 2 post application
# [17] = 50 g/ha, day 3 post application
# [18] = 50 g/ha, day 4 post application
# [19] = 50 g/ha, day 5 post application
# [20] = 50 g/ha, day 7 post application
# [21] = 50 g/ha, day 10 post application
# [22] = 100 g/ha, day 1 post application
# [23] = 100 g/ha, day 2 post application
# [24] = 100 g/ha, day 3 post application
# [25] = 100 g/ha, day 4 post application
# [26] = 100 g/ha, day 5 post application
# [27] = 100 g/ha, day 7 post application
# [28] = 100 g/ha, day 10 post application
# [29] = 200 g/ha, day 1 post application
# [30] = 200 g/ha, day 2 post application
# [31] = 200 g/ha, day 3 post application
# [32] = 200 g/ha, day 4 post application
# [33] = 200 g/ha, day 5 post application
# [34] = 200 g/ha, day 7 post application
# [35] = 200 g/ha, day 10 post application
smiles,measurement,setting,value
"CC(C)N(C)S(=O)(=O)/N=C/c1cc(-n2c(=O)cc(C(F)(F)F)n(C)c2=O)c(F)cc1Cl [Compound 22, 1-[4-Chloro-2-fluoro-5-[(E)-(isopropyl(methyl)sulfamoyl)iminomethyl]phenyl]-3-methyl-2,6-dioxo-4-(trifluoromethyl)pyrimidine]",Average of necrosis,[1]; [3],C (C represents a percentage increase in necrosis relative to the control of 0.1-50)
same,Average of necrosis,[1]; [4],C (C represents a percentage increase in necrosis relative to the control of 0.1-50)
same,Average of necrosis,[1]; [5],C (C represents a percentage increase in necrosis relative to the control of 0.1-50)
same,Average of necrosis,[1]; [6],C (C represents a percentage increase in necrosis relative to the control of 0.1-50)
same,Average of necrosis,[1]; [7],B (B represents a percentage inhibition of 50-80)
same,Average of necrosis,[1]; [8],C (C represents a percentage increase in necrosis relative to the control of 0.1-50)
same,Average of necrosis,[1]; [9],C (C represents a percentage increase in necrosis relative to the control of 0.1-50)
same,Average of necrosis,[1]; [10],C (C represents a percentage increase in necrosis relative to the control of 0.1-50)
same,Average of necrosis,[1]; [11],C (C represents a percentage increase in necrosis relative to the control of 0.1-50)
same,Average of necrosis,[1]; [12],C (C represents a percentage increase in necrosis relative to the control of 0.1-50)
same,Average of necrosis,[1]; [13],C (C represents a percentage increase in necrosis relative to the control of 0.1-50)
same,Average of necrosis,[1]; [14],A (A represents a percentage inhibition of 80-100)
same,Average of necrosis,[1]; [15],C (C represents a percentage increase in necrosis relative to the control of 0.1-50)
same,Average of necrosis,[1]; [16],C (C represents a percentage increase in necrosis relative to the control of 0.1-50)
same,Average of necrosis,[1]; [17],C (C represents a percentage increase in necrosis relative to the control of 0.1-50)
same,Average of necrosis,[1]; [18],C (C represents a percentage increase in necrosis relative to the control of 0.1-50)
same,Average of necrosis,[1]; [19],B (B represents a percentage inhibition of 50-80)
same,Average of necrosis,[1]; [20],B (B represents a percentage inhibition of 50-80)
same,Average of necrosis,[1]; [21],B (B represents a percentage inhibition of 50-80)
same,Average of necrosis,[1]; [22],C (C represents a percentage increase in necrosis relative to the control of 0.1-50)
same,Average of necrosis,[1]; [23],C (C represents a percentage increase in necrosis relative to the control of 0.1-50)
same,Average of necrosis,[1]; [24],C (C represents a percentage increase in necrosis relative to the control of 0.1-50)
same,Average of necrosis,[1]; [25],C (C represents a percentage increase in necrosis relative to the control of 0.1-50)
same,Average of necrosis,[1]; [26],B (B represents a percentage inhibition of 50-80)
same,Average of necrosis,[1]; [27],B (B represents a percentage inhibition of 50-80)
same,Average of necrosis,[1]; [28],B (B represents a percentage inhibition of 50-80)
same,Average of necrosis,[1]; [29],C (C represents a percentage increase in necrosis relative to the control of 0.1-50)
same,Average of necrosis,[1]; [30],C (C represents a percentage increase in necrosis relative to the control of 0.1-50)
same,Average of necrosis,[1]; [31],C (C represents a percentage increase in necrosis relative to the control of 0.1-50)
same,Average of necrosis,[1]; [32],C (C represents a percentage increase in necrosis relative to the control of 0.1-50)
same,Average of necrosis,[1]; [33],B (B represents a percentage inhibition of 50-80)
same,Average of necrosis,[1]; [34],B (B represents a percentage inhibition of 50-80)
same,Average of necrosis,[1]; [35],A (A represents a percentage inhibition of 80-100)
same,Average of necrosis,"[2]; 12.5 g/ha, day 1 post application",C (C represents a percentage increase in necrosis relative to the control of 0.1-50)
same,Average of necrosis,"[2]; 12.5 g/ha, day 2 post application",C (C represents a percentage increase in necrosis relative to the control of 0.1-50)
same,Average of necrosis,[2]; [3],C (C represents a percentage increase in necrosis relative to the control of 0.1-50)
same,Average of necrosis,[2]; [4],C (C represents a percentage increase in necrosis relative to the control of 0.1-50)
same,Average of necrosis,[2]; [5],C (C represents a percentage increase in necrosis relative to the control of 0.1-50)
same,Average of necrosis,[2]; [6],C (C represents a percentage increase in necrosis relative to the control of 0.1-50)
same,Average of necrosis,[2]; [7],B (B represents a percentage inhibition of 50-80)
same,Average of necrosis,[2]; [8],C (C represents a percentage increase in necrosis relative to the control of 0.1-50)
same,Average of necrosis,[2]; [9],C (C represents a percentage increase in necrosis relative to the control of 0.1-50)
same,Average of necrosis,[2]; [10],C (C represents a percentage increase in necrosis relative to the control of 0.1-50)
same,Average of necrosis,[2]; [11],C (C represents a percentage increase in necrosis relative to the control of 0.1-50)
same,Average of necrosis,[2]; [12],C (C represents a percentage increase in necrosis relative to the control of 0.1-50)
same,Average of necrosis,[2]; [13],C (C represents a percentage increase in necrosis relative to the control of 0.1-50)
same,Average of necrosis,[2]; [14],C (C represents a percentage increase in necrosis relative to the control of 0.1-50)
same,Average of necrosis,[2]; [15],C (C represents a percentage increase in necrosis relative to the control of 0.1-50)
same,Average of necrosis,[2]; [16],C (C represents a percentage increase in necrosis relative to the control of 0.1-50)
same,Average of necrosis,[2]; [17],C (C represents a percentage increase in necrosis relative to the control of 0.1-50)
same,Average of necrosis,[2]; [18],C (C represents a percentage increase in necrosis relative to the control of 0.1-50)
same,Average of necrosis,[2]; [19],B (B represents a percentage inhibition of 50-80)
same,Average of necrosis,[2]; [20],B (B represents a percentage inhibition of 50-80)
same,Average of necrosis,[2]; [21],B (B represents a percentage inhibition of 50-80)
same,Average of necrosis,[2]; [22],C (C represents a percentage increase in necrosis relative to the control of 0.1-50)
same,Average of necrosis,[2]; [23],C (C represents a percentage increase in necrosis relative to the control of 0.1-50)
same,Average of necrosis,[2]; [24],C (C represents a percentage increase in necrosis relative to the control of 0.1-50)
same,Average of necrosis,[2]; [25],C (C represents a percentage increase in necrosis relative to the control of 0.1-50)
same,Average of necrosis,[2]; [26],C (C represents a percentage increase in necrosis relative to the control of 0.1-50)
same,Average of necrosis,[2]; [27],C (C represents a percentage increase in necrosis relative to the control of 0.1-50)
same,Average of necrosis,[2]; [28],B (B represents a percentage inhibition of 50-80)
same,Average of necrosis,[2]; [29],C (C represents a percentage increase in necrosis relative to the control of 0.1-50)
same,Average of necrosis,[2]; [30],C (C represents a percentage increase in necrosis relative to the control of 0.1-50)
same,Average of necrosis,[2]; [31],C (C represents a percentage increase in necrosis relative to the control of 0.1-50)
same,Average of necrosis,[2]; [32],C (C represents a percentage increase in necrosis relative to the control of 0.1-50)
same,Average of necrosis,[2]; [33],C (C represents a percentage increase in necrosis relative to the control of 0.1-50)
same,Average of necrosis,[2]; [34],C (C represents a percentage increase in necrosis relative to the control of 0.1-50)
same,Average of necrosis,[2]; [35],B (B represents a percentage inhibition of 50-80)
